Test results taken from the supplement of paper PMC11451515.

Tested on: SEM cells
Experiment: cell viability relative to DMSO control; higher = less cytotoxic
Conditions: 48 h
In short: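 NOMO1, SEM and P12-Ichikawa leukemia cells spent at least four passages adapting to each medium before use. They were seeded at 500 cells/well (NOMO1, SEM) or 1000 cells/well (P12-Ichikawa) in 5 μl in 1536-well plates and pin-dosed with library compounds in DMSO at 11 threefold steps from 47 μM down to 0.79 nM. After 48 h at 37°C, CellTiter-Glo One luminescence was read. Viability is reported as a percentage of the DMSO wells on each plate, with cell-free wells as background.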

[1] = HPLM + 10% dialyzed FBS, 0.000781 µM
[2] = HPLM + 10% dialyzed FBS, 0.00234 µM
[3] = HPLM + 10% dialyzed FBS, 0.00702 µM
[4] = HPLM + 10% dialyzed FBS, 0.0211 µM
[5] = HPLM + 10% dialyzed FBS, 0.0632 µM
[6] = HPLM + 10% dialyzed FBS, 0.19 µM
[7] = HPLM + 10% dialyzed FBS, 0.569 µM
[8] = HPLM + 10% dialyzed FBS, 1.71 µM
[9] = HPLM + 10% dialyzed FBS, 5.12 µM
[10] = HPLM + 10% dialyzed FBS, 15.4 µM
[11] = HPLM + 10% dialyzed FBS, 46.1 µM
[12] = RPMI 5 mM glucose + 10% FBS, 0.000781 µM
[13] = RPMI 5 mM glucose + 10% FBS, 0.00234 µM
[14] = RPMI 5 mM glucose + 10% FBS, 0.00702 µM
[15] = RPMI 5 mM glucose + 10% FBS, 0.0211 µM
[16] = RPMI 5 mM glucose + 10% FBS, 0.0632 µM
[17] = RPMI 5 mM glucose + 10% FBS, 0.19 µM
[18] = RPMI 5 mM glucose + 10% FBS, 0.569 µM
[19] = RPMI 5 mM glucose + 10% FBS, 1.71 µM
[20] = RPMI 5 mM glucose + 10% FBS, 5.12 µM
[21] = RPMI 5 mM glucose + 10% FBS, 15.4 µM
[22] = RPMI 5 mM glucose + 10% FBS, 46.1 µM
[23] = RPMI 5 mM glucose + 10% dialyzed FBS, 0.000781 µM
[24] = RPMI 5 mM glucose + 10% dialyzed FBS, 0.00234 µM
[25] = RPMI 5 mM glucose + 10% dialyzed FBS, 0.00702 µM
[26] = RPMI 5 mM glucose + 10% dialyzed FBS, 0.0211 µM
[27] = RPMI 5 mM glucose + 10% dialyzed FBS, 0.0632 µM
[28] = RPMI 5 mM glucose + 10% dialyzed FBS, 0.19 µM
[29] = RPMI 5 mM glucose + 10% dialyzed FBS, 0.569 µM
[30] = RPMI 5 mM glucose + 10% dialyzed FBS, 1.71 µM
[31] = RPMI 5 mM glucose + 10% dialyzed FBS, 5.12 µM
[32] = RPMI 5 mM glucose + 10% dialyzed FBS, 15.4 µM
[33] = RPMI 5 mM glucose + 10% dialyzed FBS, 46.1 µM

Row | Compound | cell viability [1] [%] | cell viability [2] [%] | cell viability [3] [%] | cell viability [4] [%] | cell viability [5] [%] | cell viability [6] [%] | cell viability [7] [%] | cell viability [8] [%] | cell viability [9] [%] | cell viability [10] [%] | cell viability [11] [%] | cell viability [12] [%] | cell viability [13] [%] | cell viability [14] [%] | cell viability [15] [%] | cell viability [16] [%] | cell viability [17] [%] | cell viability [18] [%] | cell viability [19] [%] | cell viability [20] [%] | cell viability [21] [%] | cell viability [22] [%] | cell viability [23] [%] | cell viability [24] [%] | cell viability [25] [%] | cell viability [26] [%] | cell viability [27] [%] | cell viability [28] [%] | cell viability [29] [%] | cell viability [30] [%] | cell viability [31] [%] | cell viability [32] [%] | cell viability [33] [%]
1 | CC12CC3CC(C)(C1)CC(N)(C3)C2 | 89.4 | 107 | 93.2 | 105 | 96.7 | 99.4 | 127 | 126 | 103 | 114 | 105 | 106 | 94.4 | 105 | 109 | 110 | 106 | 122 | 114 | 133 | 123 | 131 | 84.3 | 86.8 | 88.6 | 116 | 102 | 104 | 110 | 103 | 101 | 95.5 | 104
2 | Cc1csc(-c2nnc(Nc3ccc(Oc4ncccc4-c4ccnc(N)n4)cc3)c3ccccc23)c1 | 104 | 114 | 114 | 56 | 46 | 48.9 | 45 | 42.1 | 32.5 | 36.5 | 34.2 | 108 | 100 | 102 | 55.2 | 25.5 | 24.5 | 23.9 | 28.6 | 18.7 | 18.7 | 21 | 94 | 107 | 115 | 36.4 | 30 | 34 | 34.6 | 29.1 | 29.5 | 28.5 | 28.5
3 | O=P(O)(O)C(O)(Cn1ccnc1)P(=O)(O)O | 73.9 | 94 | 19.2 | 101 | 106 | 101 | 107 | 106 | 104 | 109 | 99.1 | 95.8 | 102 | 10.2 | 110 | 120 | 116 | 123 | 110 | 123 | 120 | 114 | 100 | 89.7 | 22.5 | 92.7 | 114 | 104 | 102 | 117 | 120 | 116 | 121
4 | COc1c(C)c2c(c(O)c1C/C=C(\C)CCC(=O)O)C(=O)OC2 | 92.9 | 104 | 104 | 111 | 113 | 100 | 120 | 111 | 97 | 61.2 | 33.3 | 102 | 105 | 114 | 109 | 113 | 102 | 118 | 98.2 | 77 | 48.1 | 29.9 | 102 | 104 | 115 | 81.9 | 114 | 108 | 100 | 116 | 108 | 64.8 | 45.6
5 | COc1ccc2c(c1)[C@]13CCCCC1C(C2)N(C)CC3 (stereo partly drawn) | 102 | 116 | 113 | 106 | 116 | 112 | 103 | 100 | 128 | 111 | 129 | 106 | 105 | 115 | 115 | 111 | 126 | 110 | 113 | 126 | 126 | 123 | 101 | 103 | 106 | 114 | 108 | 114 | 118 | 109 | 117 | 108 | 114
6 | CC(C)(O)CC(=O)NCCn1ccc2ncnc(Nc3ccc(Oc4cccc(C(F)(F)F)c4)c(Cl)c3)c21 | 106 | 110 | 102 | 103 | 112 | 105 | 103 | 96.5 | 94.6 | 71.6 | 32.9 | – | – | – | – | – | – | – | – | – | – | – | 105 | 88 | 102 | 103 | 109 | 107 | 100 | 101 | 90.4 | 58.5 | 23.6
7 | O=C(O)c1cccnc1Nc1cccc(C(F)(F)F)c1 | 92.1 | 105 | 99.1 | 103 | 119 | 117 | 40.9 | 65.2 | 117 | 120 | 111 | 102 | 97.1 | 90.9 | 106 | 108 | 111 | 65.9 | 55.2 | 98.5 | 80.6 | 75.6 | 105 | 133 | 110 | 106 | 119 | 125 | 59.5 | 54.7 | 121 | 108 | 107
8 | COc1ccc(C(=O)c2c(C)n(CCN3CCOCC3)c3cc(I)ccc23)cc1 | 85.3 | 102 | 111 | 109 | 105 | 110 | 103 | 93.8 | 98.5 | 91.7 | 66.4 | 88 | 108 | 104 | 93.6 | 106 | 111 | 107 | 111 | 96.4 | 95.1 | 52 | 102 | 93.5 | 117 | 115 | 115 | 123 | 132 | 129 | 107 | 99.1 | 60.3
9 | CCOC(=O)C(C)OC1=CC=CC2=C1\C=C/N(CC(=O)NC3=CC=C4OCCOC4=C3)C2=O (stereo not drawn) | 77.7 | 85.4 | 92.1 | 93 | 102 | 92.3 | 92.4 | 97.4 | 103 | 100 | 102 | 80.1 | 87.8 | 88 | 88 | 93.2 | 90.2 | 93.5 | 95 | 109 | 98.1 | 92.6 | 90.1 | 94.9 | 102 | 89 | 85.4 | 98 | 99.2 | 104 | 99.1 | 88.2 | 112
10 | COC1=C(OCCCN2CCOCC2)C=CC\3=C1/N=C(/NC(=O)C4=CN=C(N)N=C4)N5CC/N=C35 | 95.2 | 94.2 | 102 | 99.2 | 97.4 | 77.2 | 69.4 | 65.8 | 57.3 | 47.6 | 37.4 | 128 | 119 | 110 | 106 | 104 | 97.6 | 82.4 | 88.1 | 72 | 63 | 42.8 | 89.3 | 101 | 93.2 | 95.5 | 86.3 | 83 | 66.5 | 59.3 | 56.6 | 51.8 | 35.1
11 | CC[C@H]1OC(=O)[C@H](C)C(=O)[C@H](C)[C@@H](O[C@H]2O[C@H](C)C[C@H](N(C)C)[C@H]2O)[C@](C)(OC)C[C@@H](C)C(=O)[C@H](C)[C@H]2N(CCCCn3cnc(-c4cccnc4)c3)C(=O)O[C@]12C | 99.7 | 118 | 136 | 120 | 135 | 123 | 105 | 109 | 107 | 105 | 85.2 | 95.6 | 110 | 116 | 117 | 124 | 114 | 114 | 97.8 | 119 | 102 | 93.3 | 110 | 124 | 121 | 117 | 135 | 126 | 99.3 | 119 | 104 | 118 | 86.1
12 | C[C@@H](CN1CC(=O)NC(=O)C1)N1CC(=O)NC(=O)C1 | 86.3 | 103 | 102 | 96.6 | 70.9 | 32.1 | 17.2 | 12.8 | 10.5 | 5.86 | 4.47 | 93.6 | 99.3 | 98.2 | 67.1 | 72.1 | 17.1 | 9.93 | 8.96 | 7.24 | 4.49 | 3.85 | 75 | 101 | 92.6 | 82.5 | 61.1 | 18.6 | 8.07 | 8.83 | 7.97 | 4.17 | 3.08
13 | O=C(O)c1cc(/N=N/c2ccc([S+](=O)([O-])Nc3ccccn3)cc2)ccc1O | 84.9 | 108 | 95.3 | 76.3 | 101 | 103 | 122 | 106 | 110 | 90.8 | 98.2 | 98.8 | 101 | 108 | 71.9 | 103 | 114 | 112 | 97.2 | 89.3 | 116 | 75.1 | 91.7 | 102 | 96.2 | 76.8 | 117 | 91.5 | 97.5 | 106 | 95.5 | 89.4 | 82.1
14 | NC[C@H]1O[C@H](O[C@@H]2[C@H](O)[C@@H](O[C@H]3O[C@H](CO)[C@@H](O)[C@H](N)[C@H]3O)[C@H](N)C[C@@H]2N)[C@H](O)[C@@H](O)[C@@H]1O | 96.6 | 93.3 | 100 | 24 | 88.6 | 105 | 105 | 96.8 | 105 | 90.1 | 87.3 | – | – | – | – | – | – | – | – | – | – | – | 115 | 125 | 124 | 23 | 113 | 83.3 | 107 | 113 | 105 | 104 | 92.4
15 | COc1cc[nH]c2ncc(C(=O)C(=O)N3CCN(C(=O)c4ccccc4)C[C@H]3C)c1-2 | 89.9 | 87.6 | 77.4 | 90.1 | 58.5 | 82.6 | 92 | 96.8 | 88.8 | 94.2 | 109 | 115 | 109 | 112 | 116 | 74.2 | 100 | 100 | 103 | 113 | 99.9 | 96.9 | 118 | 109 | 129 | 115 | 84.4 | 102 | 107 | 101 | 102 | 103 | 106
